The experiment deals with T1, panel of 442 kinases (Homo sapiens, UniProt O43283).
T1 construct: purchased KINOMEscan
T1 sequence (O43283 1-966): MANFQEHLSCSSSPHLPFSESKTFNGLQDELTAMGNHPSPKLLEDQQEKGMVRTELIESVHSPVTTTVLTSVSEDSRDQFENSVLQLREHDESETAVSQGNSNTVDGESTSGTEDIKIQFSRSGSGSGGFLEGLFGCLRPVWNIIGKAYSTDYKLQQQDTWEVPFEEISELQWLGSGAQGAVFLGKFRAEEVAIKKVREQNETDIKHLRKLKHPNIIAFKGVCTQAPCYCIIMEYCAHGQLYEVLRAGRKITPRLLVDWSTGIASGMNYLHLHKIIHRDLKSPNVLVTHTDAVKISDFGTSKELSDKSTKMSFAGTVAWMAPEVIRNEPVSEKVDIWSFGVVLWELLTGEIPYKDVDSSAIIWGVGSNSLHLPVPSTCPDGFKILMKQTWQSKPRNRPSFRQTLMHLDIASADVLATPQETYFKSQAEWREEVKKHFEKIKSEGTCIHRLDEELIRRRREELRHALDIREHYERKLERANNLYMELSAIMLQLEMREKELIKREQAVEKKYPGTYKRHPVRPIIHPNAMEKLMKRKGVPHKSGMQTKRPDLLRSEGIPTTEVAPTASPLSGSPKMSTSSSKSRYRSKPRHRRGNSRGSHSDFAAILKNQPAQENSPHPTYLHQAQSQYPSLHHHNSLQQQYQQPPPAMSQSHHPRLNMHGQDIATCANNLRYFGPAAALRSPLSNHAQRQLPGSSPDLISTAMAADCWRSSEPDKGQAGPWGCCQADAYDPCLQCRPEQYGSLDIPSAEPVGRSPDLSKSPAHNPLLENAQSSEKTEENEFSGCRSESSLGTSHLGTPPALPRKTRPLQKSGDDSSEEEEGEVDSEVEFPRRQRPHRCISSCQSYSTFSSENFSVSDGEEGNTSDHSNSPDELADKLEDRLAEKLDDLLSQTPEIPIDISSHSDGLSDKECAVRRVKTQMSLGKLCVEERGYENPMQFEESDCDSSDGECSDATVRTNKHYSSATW
The class given is binding. To be noted: Compound Concentration 10 µM. An excerpt: We assessed the selectivity of members of this scaffold using the KINOMEscan methodology across a near comprehensive panel of 442 kinases [[18,27]].

Take `COc1cc(C(=O)N2CCC(N3CCN(C)CC3)CC2)ccc1Nc1ncc2c(n1)N(C)c1ccccc1C(=O)N2C` [15 (LRRK2-IN-1)]: the “KINOMEscan: LZK” value is listed as 100.
As for `COc1cc(C(=O)N2CCC(N3CCN(C)CC3)CC2)ccc1Nc1ncc2c(n1)N(C1CCCC1)c1ccccc1C(=O)N2C` [Compound 25, 11-cyclopentyl-2-((2-methoxy-4-(4-(4-methylpiperazin-1-yl)piperidine-1-carbonyl)phenyl)amino)-5-methyl-5H-benzo[e]pyrimido[5,4-b][1,4]diazepin-6(11H)-one], the figure is 100; as for `CCOc1cc(C(=O)N2CCC(N3CCN(C)CC3)CC2)ccc1Nc1ncc2c(n1)N(C1CCCC1)c1ccccc1C(=O)N2C` [Compound 26], 92.

The values above are taken from PMC3914206.
